Our source for the Activity values is ChEMBL document CHEMBL1641374, “Synthesis of antiproliferative flavones from calycopterin, major flavonoid of Calycopteris floribunda Lamk” (Bioorg Med Chem, 2011).

What all share (assay type): functional
Assay [1] has as its system KB. Briefly: Induction of cell cycle arrest in human KB cells assessed as accumulation at G0/G1phase at 20 nM after 48 hrs by propidium iodide staining-based flow cytometry (reference value: 66.6%).
In assay [2] the test system is KB. Nature of the assay: Induction of cell cycle arrest in human KB cells assessed as accumulation at G0/G1phase at 20 nM after 24 hrs by propidium iodide staining-based flow cytometry (reference value: 72.9%). In general terms: Flow cytometry measures light scatter and fluorescence of single cells or particles in a stream.
The test system of assay [3] is KB. Nature of the assay: Induction of cell cycle arrest in human KB cells assessed as accumulation at G2/M phase at 20 nM after 48 hrs by propidium iodide staining-based flow cytometry (reference value: 13.8%).
Assay [4] relates to KB. Nature of the assay: Induction of cell cycle arrest in human KB cells assessed as accumulation at G2/M phase at 20 nM after 24 hrs by propidium iodide staining-based flow cytometry (reference value: 19.6%).
Assay [5] relates to KB. Nature of the assay: Induction of cell cycle arrest in human KB cells assessed as accumulation at subG1 phase at 20 nM after 24 hrs by propidium iodide staining-based flow cytometry (reference value: 0.7%).
For assay [6], the system named is KB. Nature of the assay: Induction of cell cycle arrest in human KB cells assessed as accumulation at subG1 phase at 20 nM after 48 hrs by propidium iodide staining-based flow cytometry (reference value: 1.2%).
Assay [7] deals with KB. Nature of the assay: Induction of cell cycle arrest in human KB cells assessed as accumulation at S phase at 20 nM after 48 hrs by propidium iodide staining-based flow cytometry (reference value: 18.4%).
Assay [8] has as its system KB. Briefly: Induction of cell cycle arrest in human KB cells assessed as accumulation at S phase at 20 nM after 24 hrs by propidium iodide staining-based flow cytometry (reference value: 6.9%).

The structures appear in SMILES notation.

`COc1ccc(/C=C\c2cc(OC)c(OC)c(OC)c2)cc1O` [COMBRETASTATIN A4]: the Activity turned out to be 27.4% with KB [1]; 9.5% with KB [2]; 0.8% with KB [3]; 50.1% in the assay with KB [4]; 13.8% in the assay with KB [5]; 43.5% with KB [6]. The Activity in the assay on KB [7] is recorded as 44%; with KB [8], 26.7%.
